In PubChem BioAssay (NCI):
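All cell lines were grown in 96-well plates and treated with compound for 48 hours. Here, GI50 denotes the concentration required for 50% inhibition of growth. At the TGI there is no net growth.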

How the values were obtained:
Assay in all cases: NCI-60 cell line screen, 48 h; in the data active = GI50 below about 0.43 µM; inactive = the rest
RPMI-8226 leukemia = tested on: RPMI-8226 leukemia
K-562 leukemia = tested on: K-562 leukemia
HOP-92 NSCLC = tested on: HOP-92 NSCLC
NCI-H226 lung = tested on: NCI-H226 lung
LOX IMVI melanoma = tested on: LOX IMVI melanoma
ACHN renal = tested on: ACHN renal
NCI-H460 lung = tested on: NCI-H460 lung
COLO 205 colon = tested on: COLO 205 colon
MCF7 breast = tested on: MCF7 breast
HOP-62 NSCLC = tested on: HOP-62 NSCLC
OVCAR-4 ovarian = tested on: OVCAR-4 ovarian
NCI-H522 lung = tested on: NCI-H522 lung
HS 578T breast = tested on: HS 578T breast
MDA-MB-231 breast = tested on: MDA-MB-231 breast
SF-268 CNS = tested on: SF-268 CNS
MALME-3M melanoma = tested on: MALME-3M melanoma
HCC-2998 colon = tested on: HCC-2998 colon
KM12 colon = tested on: KM12 colon
RXF 393 renal = tested on: RXF 393 renal
SK-OV-3 ovarian = tested on: SK-OV-3 ovarian
SR leukemia = tested on: SR leukemia
DU-145 prostate = tested on: DU-145 prostate
OVCAR-8 ovarian = tested on: OVCAR-8 ovarian
SN12C renal = tested on: SN12C renal
SW-620 colon = tested on: SW-620 colon
HCT-15 colon = tested on: HCT-15 colon
HCT-116 colon = tested on: HCT-116 colon
786-0 renal = tested on: 786-0 renal
A498 renal = tested on: A498 renal
EKVX NSCLC = tested on: EKVX NSCLC
SK-MEL-5 melanoma = tested on: SK-MEL-5 melanoma
SF-295 CNS = tested on: SF-295 CNS
MDA-MB-435 = tested on: MDA-MB-435
SF-539 CNS = tested on: SF-539 CNS
UACC-62 melanoma = tested on: UACC-62 melanoma
A549 NSCLC = tested on: A549 NSCLC
NCI-H23 lung = tested on: NCI-H23 lung
SNB-75 CNS = tested on: SNB-75 CNS
TK-10 renal = tested on: TK-10 renal
BT-549 breast = tested on: BT-549 breast
CCRF-CEM leukemia = tested on: CCRF-CEM leukemia
SK-MEL-2 melanoma = tested on: SK-MEL-2 melanoma
OVCAR-5 ovarian = tested on: OVCAR-5 ovarian
IGROV1 ovarian = tested on: IGROV1 ovarian
HL-60(TB) leukemia = tested on: HL-60(TB) leukemia
SK-MEL-28 melanoma = tested on: SK-MEL-28 melanoma
UO-31 renal = tested on: UO-31 renal
T-47D breast = tested on: T-47D breast
MOLT-4 leukemia = tested on: MOLT-4 leukemia
OVCAR-3 ovarian = tested on: OVCAR-3 ovarian
HT29 colon = tested on: HT29 colon
UACC-257 melanoma = tested on: UACC-257 melanoma
NCI/ADR-RES ovarian = tested on: NCI/ADR-RES ovarian
CAKI-1 renal = tested on: CAKI-1 renal
PC-3 prostate = tested on: PC-3 prostate
U251 CNS = tested on: U251 CNS
SNB-19 CNS = tested on: SNB-19 CNS

C[C@]12CC[C@H]3[C@@H](CC=C4C[C@@H](O)CC[C@@]43C)[C@@H]1CC[C@@H]2[C@](C)(O)CCc1cccnc1
55 µM: TGI (NCI-H226 lung)
7.78 µM: TGI (RXF 393 renal)
9.64 µM: TGI (SF-295 CNS)
49.9 µM: TGI (RPMI-8226 leukemia)
8.14 µM: TGI (MALME-3M melanoma)
24 µM: TGI (MOLT-4 leukemia)
7.04 µM: TGI (HL-60(TB) leukemia)
> 100 µM: TGI (K-562 leukemia) | TGI (HOP-92 NSCLC) | TGI (LOX IMVI melanoma) | TGI (ACHN renal) | TGI (NCI-H460 lung) | TGI (COLO 205 colon) | TGI (MCF7 breast) | TGI (HOP-62 NSCLC) | TGI (OVCAR-4 ovarian) | TGI (HS 578T breast) | TGI (MDA-MB-231 breast) | TGI (SF-268 CNS) | TGI (HCC-2998 colon) | TGI (KM12 colon) | TGI (SK-OV-3 ovarian) | TGI (SR leukemia) | TGI (DU-145 prostate) | TGI (OVCAR-8 ovarian) | TGI (SN12C renal) | TGI (SW-620 colon) | TGI (HCT-15 colon) | TGI (HCT-116 colon) | TGI (786-0 renal) | TGI (EKVX NSCLC) | TGI (MDA-MB-435) | TGI (SF-539 CNS) | TGI (UACC-62 melanoma) | TGI (A549 NSCLC) | TGI (NCI-H23 lung) | TGI (SNB-75 CNS) | TGI (TK-10 renal) | TGI (CCRF-CEM leukemia) | TGI (SK-MEL-2 melanoma) | TGI (OVCAR-5 ovarian) | TGI (IGROV1 ovarian) | TGI (SK-MEL-28 melanoma) | TGI (UO-31 renal) | TGI (T-47D breast) | TGI (OVCAR-3 ovarian) | TGI (HT29 colon) | TGI (UACC-257 melanoma) | TGI (NCI/ADR-RES ovarian) | TGI (CAKI-1 renal) | TGI (PC-3 prostate) | TGI (U251 CNS) | TGI (SNB-19 CNS)
2.6 µM: TGI (SK-MEL-5 melanoma)
inactive: GI50 (RPMI-8226 leukemia) 1.88 µM | GI50 (K-562 leukemia) 2.13 µM | GI50 (HOP-92 NSCLC) 2.11 µM | GI50 (NCI-H226 lung) 3.7 µM | GI50 (LOX IMVI melanoma) 5.63 µM | GI50 (ACHN renal) 4.53 µM | GI50 (NCI-H460 lung) 3.99 µM | GI50 (COLO 205 colon) 3.16 µM | GI50 (MCF7 breast) 2.28 µM | GI50 (HOP-62 NSCLC) 9.27 µM | GI50 (OVCAR-4 ovarian) 1.25 µM | GI50 (NCI-H522 lung) 2.09 µM | GI50 (HS 578T breast) 3.41 µM | GI50 (MDA-MB-231 breast) 6.39 µM | GI50 (SF-268 CNS) 5.3 µM | GI50 (MALME-3M melanoma) 2.57 µM | GI50 (HCC-2998 colon) 4.99 µM | GI50 (KM12 colon) 5.55 µM | GI50 (RXF 393 renal) 1.94 µM | GI50 (SK-OV-3 ovarian) 6.49 µM | GI50 (SR leukemia) 2.95 µM | GI50 (DU-145 prostate) 3.48 µM | GI50 (OVCAR-8 ovarian) 4.82 µM | GI50 (SN12C renal) 47.1 µM | GI50 (SW-620 colon) 5.49 µM | GI50 (HCT-15 colon) 4.29 µM | GI50 (HCT-116 colon) 3.42 µM | GI50 (786-0 renal) 5.76 µM | GI50 (A498 renal) 2.74 µM | GI50 (EKVX NSCLC) 1.59 µM | GI50 (SK-MEL-5 melanoma) 1.01 µM | GI50 (SF-295 CNS) 2.21 µM | GI50 (MDA-MB-435) 4.6 µM | GI50 (SF-539 CNS) 6.11 µM | GI50 (UACC-62 melanoma) 3.19 µM | GI50 (A549 NSCLC) 4.44 µM | GI50 (NCI-H23 lung) 3.05 µM | GI50 (SNB-75 CNS) 2.92 µM | GI50 (TK-10 renal) 7.58 µM | GI50 (BT-549 breast) 1.69 µM | GI50 (CCRF-CEM leukemia) 4.1 µM | GI50 (SK-MEL-2 melanoma) 7.44 µM | GI50 (OVCAR-5 ovarian) > 100 µM | GI50 (IGROV1 ovarian) 6.37 µM | GI50 (HL-60(TB) leukemia) 2.42 µM | GI50 (SK-MEL-28 melanoma) 4.27 µM | GI50 (UO-31 renal) 1.97 µM | GI50 (T-47D breast) 2.09 µM | GI50 (MOLT-4 leukemia) 2.75 µM | GI50 (OVCAR-3 ovarian) 9.14 µM | GI50 (HT29 colon) 4.6 µM | GI50 (UACC-257 melanoma) 3.03 µM | GI50 (NCI/ADR-RES ovarian) 3.43 µM | GI50 (CAKI-1 renal) 7.1 µM | GI50 (PC-3 prostate) 3.55 µM | GI50 (U251 CNS) 6.5 µM | GI50 (SNB-19 CNS) 6.77 µM
7.79 µM: TGI (NCI-H522 lung)
62.1 µM: TGI (A498 renal)
6.55 µM: TGI (BT-549 breast)
